Values quoted from earlier work, collected in patent publication US20210268001A1, “USE OF MIOTIC C[…] F2a PRO[…] FOR PREVENTION AND TREATMENT OF MYOPIA” (priority 2018, published 2021).

Columns and labels:
[1] = tested on: corneal epithelium epithelial cells
cholinergic receptors = tested on: cholinergic receptors; set-up: unit not given here; conditions: reversible acetylcholinesterase inhibitors

Row | Structure (SMILES) | cytotoxic effect on epithelial cells ([1]; high concentration of NO (100 mM NaNO2), over the same period (6 hs)) | viability of epithelial cells ([1]; low concentrations of NO (1 nM to 1 mM NaNO2), 6 hs after application) | action time (cholinergic receptors)
1 | O=N[O-].[Na+] [NaNO2] | cytotoxic effect | significantly increased | 
2 | COc1cc2c(cc1OC)C(=O)C(CC1CCN(Cc3ccccc3)CC1)C2 (stereo not shown) [donepezil] |  |  | one to two
3 | CC[N+](C)(C)c1cccc(O)c1 [edrophonium] |  |  | one to two
4 | CN(C)C(=O)Oc1cccc([N+](C)(C)C)c1 [neostigmine] |  |  | one to two
5 | CN(C)C(=O)Oc1ccc[n+](C)c1 [pyridostigmine] |  |  | one to two
6 | CCN(C)C(=O)Oc1cccc([C@H](C)N(C)C)c1 [rivastigmine] |  |  | one to two
